This is an account of results in patent US12077503B2, “Substituted cyclic amides and their use as herbicides” (FMC CORPORATION, priority 2015, dated 2024).

Like-named read-outs stand apart in the source and are kept apart here.

Holding throughout (assay type): in vivo
For test [1], the system named is Galium (catchweed bedstraw, Galium aparine). Description: Test A postemergence. The conditions noted are these: Galium, post-emergence, 240 h; for pest or weed control at 125 g/ha: 125 g ai/ha; for pest or weed control at 500 g/ha: 500 g ai/ha, visual injury, approx. 10 d. In short, it runs like this:
(§1)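 Preemergence soil spray on seeded pots or post-emergence spray on 1–2 leaf plants, in loam–sand blend. Greenhouse ~10 d. Visual rating 0–100 against untreated plants.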

In test [2] the test system is barnyardgrass (Echinochloa crus-galli). The test can be described thus: Test A postemergence. As to conditions: Echinochloa crus-galli, post-emergence, 240 h; for pest or weed control at 125 g/ha: 125 g ai/ha; for pest or weed control at 500 g/ha: 500 g ai/ha, visual injury, approx. 10 d. A digest of the protocol: as §1
The subject of test [3] is blackgrass (Alopecurus myosuroides). The test can be described thus: Test A postemergence. The conditions noted are these: Alopecurus myosuroides, post-emergence, 240 h; for pest or weed control at 125 g/ha: 125 g ai/ha. In short, it runs like this:
as §1

For the next test, the system named is corn (Zea mays). Description: Test A postemergence. The conditions noted are these: Zea mays, post-emergence, 240 h; for plant injury at 125 g/ha / Corn plant response rating (crop injury, 0 = no effect, 100 = complete kill) at 500 g/ha: Postemergence; for plant injury at 125 g/ha: visual rating about 10 d after treatment, read-out: Corn plant response rating (0 to 100 scale); for Corn plant response rating (crop injury, 0 = no effect, 100 = complete kill) at 500 g/ha: 500 g ai/ha, visual injury, approx. 10 d. A digest of the protocol:
as §1

The test system of test [4] is giant foxtail (Setaria faberii). Description: Test A postemergence. As to conditions: Setaria faberi, post-emergence, 240 h; for pest or weed control at 125 g/ha: 125 g ai/ha; for pest or weed control at 500 g/ha: 500 g ai/ha, visual injury, approx. 10 d. In short, it runs like this: as §1
For test [5], the system named is pigweed (Amaranthus retroflexus). The test can be described thus: Test A postemergence. The conditions noted are these: Amaranthus retroflexus, post-emergence, 240 h; for pest or weed control at 125 g/ha: 125 g ai/ha; for pest or weed control at 500 g/ha: 500 g ai/ha, visual injury, approx. 10 d. A digest of the protocol: as §1
For test [6], the system named is ragweed (common ragweed, Ambrosia elatior). The test can be described thus: Test A postemergence. As to conditions: Ambrosia artemisiifolia, post-emergence, 240 h; for pest or weed control at 125 g/ha: 125 g ai/ha; for pest or weed control at 500 g/ha: 500 g ai/ha, visual injury, approx. 10 d. In short, it runs like this: as §1
The subject of test [7] is ryegrass, Italian (Italian ryegrass, Lolium multiflorum). The test can be described thus: Test A postemergence. As to conditions: Lolium multiflorum, post-emergence, 240 h; for pest or weed control at 125 g/ha: 125 g ai/ha; for pest or weed control at 500 g/ha: 500 g ai/ha, visual injury, approx. 10 d. A digest of the protocol: as §1
Test [8] deals with wheat (Triticum aestivum). Description: Test A postemergence. The conditions noted are these: Triticum aestivum, post-emergence, 240 h; for plant injury at 125 g/ha: 125 g ai/ha; for plant injury at 500 g/ha: 500 g ai/ha, visual injury, approx. 10 d. In short, it runs like this:
as §1

Test [9] relates to barnyardgrass (Echinochloa crus-galli). The test can be described thus: Test B flooded paddy test. The conditions noted are these: Echinochloa crus-galli, Flood, 250 g ai/ha. In short, it runs like this:
(§2)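 Response scored visually against untreated controls, 0 = no effect and 100 = complete control, 13–15 d after treatment in the greenhouse. Compounds added to paddy water held 3 cm above soil surface. Treatment given at 2-leaf stage.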

Test [10] deals with ducksalad (Heteranthera limosa). Description: Test B flooded paddy test. The conditions noted are these: Heteranthera limosa, Flood, 250 g ai/ha. A digest of the protocol: as §2
Another test relates to rice (Oryra sativa). The test can be described thus: Test B flooded paddy test. As to conditions: Oryza sativa, Flood, 250 g ai/ha. A digest of the protocol: as §2
The subject of test [11] is sedge, umbrella (small-flower umbrella sedge, Cyperus difformis). The test can be described thus: Test B flooded paddy test. The conditions noted are these: Cyperus difformis, Flood, 250 g ai/ha. In short, it runs like this:
as §2

The test system of the next test is Kochia (Kochia scoparia). Description: Test A postemergence. The conditions noted are these: Bassia scoparia, post-emergence, 240 h, Postemergence. A digest of the protocol: as §1
The mark [12] stands for this setting: Postemergence, visual rating about 10 d after treatment, read-out: Galium plant response rating (0 to 100 scale).
The mark [13] stands for this setting: Postemergence, 0 to 100 scale (0 no effect, 100 complete control), read-out: Plant response rating, Galium.
Where [14] appears, read: Postemergence, visual rating about 10 d after treatment, read-out: Barnyardgrass plant response rating (0 to 100 scale, 0 no effect, 100 complete control).
Setting [15] is: Postemergence, 0 to 100 scale (0 no effect, 100 complete control), read-out: Plant response rating, Barnyardgrass.
Setting [16] is: 0 to 100 scale (0 no effect, 100 complete control).
Where [17] appears, read: Postemergence, visual rating about 10 d after treatment, read-out: Foxtail, Giant plant response rating (0 to 100 scale).
Where [18] appears, read: Postemergence, 0 to 100 scale (0 no effect, 100 complete control), read-out: Plant response rating, Foxtail, Giant.
Where [19] appears, read: Postemergence, visual rating about 10 d after treatment, read-out: Pigweed plant response rating (0 to 100 scale).
The mark [20] stands for this setting: Postemergence, 0 to 100 scale (0 no effect, 100 complete control), read-out: Plant response rating, Pigweed.
[21] abbreviates: Postemergence, visual rating about 10 d after treatment, read-out: Ragweed plant response rating (0 to 100 scale).
[22] abbreviates: Postemergence, 0 to 100 scale (0 no effect, 100 complete control), read-out: Plant response rating, Ragweed.
Where [23] appears, read: Postemergence, visual rating about 10 d after treatment, read-out: Ryegrass, Italian plant response rating (0 to 100 scale).
Where [24] appears, read: Postemergence, 0 to 100 scale (0 no effect, 100 complete control), read-out: Plant response rating, Ryegrass, Italian.
The mark [25] stands for this setting: Postemergence, visual rating about 10 d after treatment, read-out: Wheat plant response rating (0 to 100 scale).
The mark [26] stands for this setting: Postemergence, 0 to 100 scale (0 no effect, 100 complete control), read-out: Plant response rating, Wheat.
The mark [27] stands for this setting: 360 h, visually evaluated after 13 to 15 d, read-out: Plant response rating, Sedge, Umbrella (0 to 100 scale where 0 is no effect and 100 is complete control).

With `CN1C[C@H](c2nccs2)[C@@H](C(=O)Nc2ccccc2F)C1=O` [Compound 773], the pest or weed control at 125 g/ha in test [1] (postemergence, visual injury after approximately 10 d, 0 to 100 scale (0 no effect, 100 complete control), read-out: Plant response rating, Galium) worked out at 0%; in test [2] (postemergence, visual injury after approximately 10 d, 0 to 100 scale (0 no effect, 100 complete control), read-out: Plant response rating, Barnyardgrass), 0%; in test [3] (postemergence, visual injury after approximately 10 d, 0 to 100 scale (0 no effect, 100 complete control), read-out: Plant response rating, Blackgrass), 0%; in test [4] (postemergence, visual injury after approximately 10 d, 0 to 100 scale (0 no effect, 100 complete control), read-out: Plant response rating, Foxtail, Giant), 0%; in test [5] (postemergence, visual injury after approximately 10 d, 0 to 100 scale (0 no effect, 100 complete control), read-out: Plant response rating, Pigweed), 0%; in test [6] (postemergence, visual injury after approximately 10 d, 0 to 100 scale (0 no effect, 100 complete control), read-out: Plant response rating, Ragweed) it was 0%. Also, in test [7] (postemergence, visual injury after approximately 10 d, 0 to 100 scale (0 no effect, 100 complete control), read-out: Plant response rating, Ryegrass, Italian), the pest or weed control at 125 g/ha is 0%. In the test on corn (Zea mays) (125 g ai/ha, postemergence, visual injury after approximately 10 d, 0 to 100 scale (0 no effect, 100 complete control)), this compound had a Corn plant response rating (crop injury, 0 = no effect, 100 = complete kill) at 125 g/ha of 0%. Also, the plant injury at 125 g/ha in test [8] (postemergence, visual injury after approximately 10 d, 0 to 100 scale (0 no effect, 100 complete control), read-out: Plant response rating, Wheat) was found to be 0%. Also, the pest or weed control at 250 g/ha in test [9] (scale of 0 to 100 where 0 is no effect and 100 is complete control, read-out: Barnyardgrass plant response rating) amounted to 0%; in test [10] (scale of 0 to 100 where 0 is no effect and 100 is complete control, read-out: Ducksalad plant response rating), 0%; with rice (Oryra sativa) (scale of 0 to 100 where 0 is no effect and 100 is complete control, read-out: Rice plant response rating), 0%; in [11] (scale of 0 to 100 where 0 is no effect and 100 is complete control, read-out: Sedge, Umbrella plant response rating), 0%.
Regarding `O=C1NC[C@H](c2ccc(OC(F)F)cc2)[C@H]1C(=O)Nc1ccc(F)cc1F` [Compound 1325], the pest or weed control at 125 g/ha in test [1] (setting [12]) stood at 80%; in the test with Kochia (Kochia scoparia) (125 g ai/ha, visual rating about 10 d after treatment, read-out: Kochia plant response rating (0 to 100 scale)), 70%; in [2] (setting [14]), 90%; in test [4] (setting [17]), 80%; in test [5] (setting [19]), 70%; in [6] (setting [21]) it was 0%. The pest or weed control at 125 g/ha in test [7] (setting [23]) was determined as 0%. The pest or weed control at 500 g/ha in test [1] (setting [13]) is 90%; with Kochia (Kochia scoparia) (500 g ai/ha, visual injury, 0 to 100 scale (0 no effect, 100 complete control), approx. 10 d, read-out: Plant response rating, Kochia), 80%; in test [2] (setting [15]), 90%; in test [4] (setting [18]) it was 90%; in test [5] (setting [20]), 90%; in test [6] (setting [22]) it was 0%. For the same compound, the pest or weed control at 500 g/ha in test [7] (setting [24]) came to 0%. Moreover, the plant injury at 125 g/ha (with corn (Zea mays) (125 g ai/ha); in [8] (setting [25])) was 0% throughout. Also, in the test on corn (Zea mays) (setting [16]), the Corn plant response rating (crop injury, 0 = no effect, 100 = complete kill) at 500 g/ha amounted to 50%. Moreover, the plant injury at 500 g/ha in test [8] (setting [26]) turned out to be 0%. Also, the pest or weed control at 250 g/ha came to 15% in test [9] (0 to 100 scale where 0 is no effect and 100 is complete control, read-out: Barnyardgrass plant response rating); 100% in [10] (0 to 100 scale where 0 is no effect and 100 is complete control, read-out: Ducksalad plant response rating); 0% in the test on rice (Oryra sativa) (0 to 100 scale where 0 is no effect and 100 is complete control, read-out: Rice plant response rating); 0% in [11] (setting [27]).
Regarding `CN1C[C@H](c2ccc(C(F)(F)F)cc2)[C@@H](C(=O)Nc2cccc(F)c2C#N)C1=O` [Compound 1380], the pest or weed control at 125 g/ha in test [1] (setting [12]) was 50%; in test [2] (setting [14]) it was 60%; in test [3] (Postemergence, visual rating about 10 d after treatment, read-out: Blackgrass plant response rating (0 to 100 scale)) it was 40%; in test [4] (setting [17]), 90%; in test [5] (setting [19]) it was 50%; in test [6] (setting [21]), 40%. Moreover, the pest or weed control at 125 g/ha in test [7] (setting [23]) was 50%. The pest or weed control at 500 g/ha turned out to be 50% in [1] (setting [13]); 80% in [2] (setting [15]); 60% in test [3] (Postemergence, 500 g ai/ha, visual injury, 0 to 100 scale (0 no effect, 100 complete control), approx. 10 d, read-out: Plant response rating, Blackgrass); 90% in test [4] (setting [18]); 60% in test [5] (setting [20]); 50% in test [6] (setting [22]). Further, the pest or weed control at 500 g/ha in test [7] (setting [24]) came to 60%. Further, the plant injury at 125 g/ha in the test on corn (Zea mays) (125 g ai/ha) stood at 50%; in test [8] (setting [25]) it was 40%. Moreover, in the test with corn (Zea mays) (setting [16]), the Corn plant response rating (crop injury, 0 = no effect, 100 = complete kill) at 500 g/ha is 80%. Besides, the plant injury at 500 g/ha in [8] (setting [26]) is 40%. The pest or weed control at 250 g/ha in test [9] (360 h, visually evaluated after 13 to 15 d, read-out: Plant response rating, Barnyardgrass (0 to 100 scale where 0 is no effect and 100 is complete control)) amounted to 60%; in test [10] (360 h, visually evaluated after 13 to 15 d, read-out: Plant response rating, Ducksalad (0 to 100 scale where 0 is no effect and 100 is complete control)), 100%; in the test with rice (Oryra sativa) (360 h, visually evaluated after 13 to 15 d, read-out: Plant response rating, Rice (0 to 100 scale where 0 is no effect and 100 is complete control)), 0%; in test [11] (setting [27]), 0%.
